Reference: patent publication US8236947B2, “Quinoline derivatives and their use as 5-HT6 ligands” (Glaxo Group Limited, priority 2002, dated 2012)
Where a name gives a salt, the structure may show the parent alone. Read-outs that look alike come from different tables or passages of the source.

Columns and labels:
[1] = target: human cloned 5-HT6 receptors (Homo sapiens, UniProt P50406); test: affinity for the 5-HT6 receptor (procedures outlined in WO98/27081); format: binding
[2] = human cloned 5-HT6 receptors, read-out: pKi values at human cloned 5-HT6 receptors (converted)

human cloned 5-HT6 receptors, sequence (P50406 whole entry): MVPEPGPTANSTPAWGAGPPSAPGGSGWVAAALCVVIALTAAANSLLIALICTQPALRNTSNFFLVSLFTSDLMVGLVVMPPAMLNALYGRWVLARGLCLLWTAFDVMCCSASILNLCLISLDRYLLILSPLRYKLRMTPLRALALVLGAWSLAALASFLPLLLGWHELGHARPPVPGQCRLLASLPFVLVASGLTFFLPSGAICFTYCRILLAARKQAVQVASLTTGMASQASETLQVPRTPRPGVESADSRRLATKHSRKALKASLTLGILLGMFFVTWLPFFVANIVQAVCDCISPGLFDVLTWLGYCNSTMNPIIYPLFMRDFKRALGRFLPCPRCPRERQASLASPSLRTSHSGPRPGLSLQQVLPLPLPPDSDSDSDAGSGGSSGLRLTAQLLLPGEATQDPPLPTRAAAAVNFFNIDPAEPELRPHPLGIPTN

Compound	Ki [1, 2]	other results
O=S(=O)(c1cccc(F)c1)c1cnc2c(N3CCNCC3)cccc2c1 [Example E7, 3-(3-Fluoro)phenylsulfonyl-8-piperazin-1-yl-quinoline hydrochloride]	< 10 nM	
O=S(=O)(c1ccc(Cl)cc1)c1cnc2c(N3CCNCC3)cccc2c1 [Example E6, 3-(4-Chloro)phenylsulfonyl-8-piperazin-1-yl-quinoline hydrochloride]	< 10 nM	
O=S(=O)(c1cccc(Cl)c1)c1cnc2c(N3CCNCC3)cccc2c1 [Example E4, 3-(3-Chloro)phenylsulfonyl-8-piperazin-1-yl-quinoline hydrochloride]	< 10 nM	
O=S(=O)(c1ccccc1)c1cnc2c(N3CCNCC3)c(Cl)ccc2c1 [Example E10, 7-Chloro-3-phenylsulfonyl-8-piperazin-1-yl-quinoline hydrochloride]		Ki [1]: < 10 nM
O=S(=O)(c1cnc2c(N3CCNCC3)cccc2c1)c1ccccc1F [Example E5, 3-(2-Fluoro)phenylsulfonyl-8-piperazin-1-yl-quinoline hydrochloride]	< 10 nM	
CN1CCN(c2cccc3cc(S(=O)(=O)c4ccccc4)cnc23)CC1 [Example E1, 8-(4-Methyl-piperazin-1-yl)-3-phenylsulfonylquinoline]	< 10 nM	
O=S(=O)(c1cnc2c(N3CCNCC3)cccc2c1)c1ccc(Br)cc1OC(F)(F)F [Example E8, 3-(4-Bromo-2-trifluoromethoxy)phenylsulfonyl-8-piperazin-1-yl-quinoline hydrochloride]	< 10 nM	
O=S(=O)(c1cnc2c(N3CCNCC3)cccc2c1)c1ccccc1Cl [Example E3, 3-(2-Chloro)phenylsulfonyl-8-piperazin-1-yl-quinoline hydrochloride]	< 10 nM	
C[C@H]1CN(c2cccc3cc(S(=O)(=O)c4ccccc4)cnc23)CCN1 (as salt: hydrochloride) [Example E13, (S)-8-(3-Methyl)piperazin-1-yl-3-phenylsulfonylquinoline hydrochloride]		melting point: 266 to 269 °C (dec.)

Continued, in another order:

Ki [1, 2]	Compound	other results
< 10 nM	C[C@H]1CN(c2cccc3cc(S(=O)(=O)c4ccccc4)cnc23)CCN1 [Example E13, (S)-8-(3-Methyl)piperazin-1-yl-3-phenylsulfonylquinoline hydrochloride]	
< 10 nM	CCN1CCN(c2cccc3cc(S(=O)(=O)c4ccccc4)cnc23)CC1 [Example E17, 8-(4-Ethyl-piperazin-1-yl)-3-phenylsulfonylquinoline hydrochloride]	
< 10 nM	O=S(=O)(c1ccccc1)c1cnc2c(N3CCCNCC3)cccc2c1 [Example E14, 8-Homopiperazin-1-yl-3-phenylsulfonylquinoline hydrochloride]	
< 10 nM	Cc1cc(N2CCNCC2)c2ncc(S(=O)(=O)c3ccccc3)cc2c1 [Example E11, 6-Methyl-3-phenylsulfonyl-8-piperazin-1-yl-quinoline hydrochloride]	
< 10 nM	O=S(=O)(c1cccc(C(F)(F)F)c1)c1cnc2c(N3CCNCC3)cccc2c1 [Example E9, 8-Piperazin-1-yl-3-(3-trifluoromethyl)phenylsulfonylquinoline hydrochloride]	
< 10 nM	O=S(=O)(c1ccccc1)c1cnc2c(N3CCN4CCCC4C3)cccc2c1 (centres unmarked) [Example E37]	
< 10 nM	O=S(=O)(c1ccccc1)c1cnc2c(N3C[C@@H]4C[C@H]3CN4)cccc2c1 [Example E43, 3-Phenylsulfonyl 8-({1S, 4S}2,5-diazabicyclo[2.2.1]heptan-2-yl) quinoline hydrochloride]	
< 10 nM	C[C@@H]1CN(c2cccc3cc(S(=O)(=O)c4ccccc4)cnc23)CCN1 [Example E12, (R)-8-(3-Methyl)piperazin-1-yl-3-phenylsulfonylquinoline hydrochloride]	
